# Measurements as given in publication PMC5129256 (International Journal of Environmental Research and Public …, 2016).
# Where “and” joins values, the source holds several entries; their conditions need not be identical. Equal entries are not always repeated. Where two headings read alike, the source gives them in different places.
# Experiments:
# [1] = tested on: LMH cells
# [2] = in vitro; settings: chicken, Viability of LMH Cells (%) ± SD, MTT
# [3] = tested on: workers; parameters: method as in ref 23 = [23]; 23. The MAK Collection for Occupational Health and Safety, Trimethylamine (MAK Value Documentation, 2004), Wiley Online Library Available online: http://onlinelibrary.wiley.com/doi/10.1002/3527600418.; settings: cited from earlier work
# [4] = tested on: LMH cells; settings: PrestoBlue; for Viability of LMH Cells (%) ±S.E.M.: 24 h; for IC50 (%): 24 h exposure, from dose-response curves
# [5] = tested on: laboratory mice; settings: mouse, in vivo; cited from earlier work
# [6] = tested on: human colon adenocarcinoma cell line Caco-2; parameters: method as in ref 39 = [39]; 39. Olejnik A. Schmidt M. Wojnarowska K. Grajek W. The influence of toxic digestive metabolites on the proliferation and DNA damage of epithelial intestinal cells in vitro Food Sci. Technol. Qual. 200; settings: Caco-2, concentrations as low as 10^-6 M; cited from earlier work
# [7] = tested on: human skin fibroblasts; settings: MTS assay; cited from earlier work
# [8] = tested on: human adenocarcinoma cell line HT-29; parameters: method as in PMID 14642818; settings: HT-29, 20 mM (or 0.04%); cited from earlier work
# [9] = MTT, 72 h exposure, from dose-response curves
# [10] = MTT, 24 h exposure, from dose-response curves
# [11] = MTT, 48 h exposure, from dose-response curves
structure (smiles),measurement,setting,value
c1ccc2[nH]ccc2c1 [Indole],cytotoxicity (in words),[1],not cytotoxic
same,IC50 (%),[1]; [9],0.06%
same,cytotoxicity,[1]; chicken,39.7%
same,viability,"[2]; 0.0004%, 24 h",88.6 ± 0.6%
same,viability,"[2]; 0.0004%, 72 h",90.7 ± 1.3%
same,viability,"[2]; 0.0008%, 24 h",95 ± 0.2%
same,viability,"[2]; 0.0008%, 72 h",94.3 ± 2.4%
same,viability,"[2]; 0.0016%, 24 h",97.4 ± 0.2%
same,viability,"[2]; 0.0016%, 72 h",94.8 ± 2.1%
same,viability,"[2]; 0.0063%, 24 h",103 ± 0.4%
same,viability,"[2]; 0.0063%, 72 h",109 ± 2.5%
same,viability,"[2]; 0.0125%, 24 h",95.5 ± 0.8%
same,viability,"[2]; 0.0125%, 72 h",103 ± 1.2%
same,viability,"[2]; 0.025%, 24 h",102.4 ± 0.2%
same,viability,"[2]; 0.025%, 72 h",73.5 ± 2%
same,viability,"[2]; 0.05%, 24 h",94.3 ± 0.6%
same,viability,"[2]; 0.05%, 72 h",73 ± 1.7%
same,viability,"[2]; 0.1%, 24 h",82.2 ± 0.2%
same,viability,"[2]; 0.1%, 72 h",60.3 ± 1.6%
same,viability,"[2]; […], 24 h",100 ± 0.4%
same,viability,"[2]; […], 72 h",104 ± 1.9%
CN(C)C [Trimethylamine],toxic effects in workers,[3]; concentrations of 20 mL/m^3,irritant to the mucous membranes and the eyes
same,toxic effects in workers,[3]; mean exposure concentrations of 5 mL/m^3 for 8 h,no toxic effects
same,Viability of LMH Cells (%) ±S.E.M.,[4]; 0.004%,72.4 ± 5.4%
same,Viability of LMH Cells (%) ±S.E.M.,[4]; 0.008%,54.3 ± 10.9%
same,Viability of LMH Cells (%) ±S.E.M.,[4]; 0.016%,51.9 ± 2.9%
same,Viability of LMH Cells (%) ±S.E.M.,[4]; 0.063%,36.6 ± 2.4%
same,Viability of LMH Cells (%) ±S.E.M.,[4]; 0.125%,17.1 ± 2.3 %
same,Viability of LMH Cells (%) ±S.E.M.,[4]; 0.25%,13.6 ± 2.3 %
same,Viability of LMH Cells (%) ±S.E.M.,[4]; 0.5%,7.1 ± 0.4 %
same,Viability of LMH Cells (%) ±S.E.M.,[4]; 1.0%,6.0 ± 0.3 %
same,IC50 (%),[4],0.02%
same,Viability of LMH Cells (%) ±S.E.M.,[4]; […],38.9 ± 9.6%
same,RD50,[5],61 mL/m^3
same,cytotoxicity,[1],above 95%
same,Viability of LMH Cells (%) ± SD,"[1]; MTT, 0.004%, 24 h",95.5 ± 1.9%
same,Viability of LMH Cells (%) ± SD,"[1]; MTT, 0.004%, 48 h",92.5 ± 5.5%
same,Viability of LMH Cells (%) ± SD,"[1]; MTT, 0.008%, 24 h",100.1 ± 3.1%
same,Viability of LMH Cells (%) ± SD,"[1]; MTT, 0.008%, 48 h",84.9 ± 8.1%
same,Viability of LMH Cells (%) ± SD,"[1]; MTT, 0.016%, 24 h",103.6 ± 2.2%
same,Viability of LMH Cells (%) ± SD,"[1]; MTT, 0.016%, 48 h",72.8 ± 6.5 %
same,Viability of LMH Cells (%) ± SD,"[1]; MTT, 0.063%, 24 h",69.7 ± 5.9 %
same,Viability of LMH Cells (%) ± SD,"[1]; MTT, 0.063%, 48 h",2.8 ± 0.2 %
same,Viability of LMH Cells (%) ± SD,"[1]; MTT, 0.125%, 24 h",8.6 ± 0.5 %
same,Viability of LMH Cells (%) ± SD,"[1]; MTT, 0.125%, 48 h",5.4 ± 0.3 %
same,Viability of LMH Cells (%) ± SD,"[1]; MTT, 0.25%, 24 h",7.6 ± 0.3 %
same,Viability of LMH Cells (%) ± SD,"[1]; MTT, 0.25%, 48 h",4.1 ± 0.3 %
same,Viability of LMH Cells (%) ± SD,"[1]; MTT, 0.5%, 24 h",7.9 ± 0.2 %
same,Viability of LMH Cells (%) ± SD,"[1]; MTT, 0.5%, 48 h",3.8 ± 0.3 %
same,Viability of LMH Cells (%) ± SD,"[1]; MTT, 1.0%, 24 h",7.0 ± 0.1 %
same,Viability of LMH Cells (%) ± SD,"[1]; MTT, 1.0%, 48 h",2.5 ± 0.3 %
same,IC50 (%),[1]; [10],0.08%
same,IC50 (%),[1]; [11],0.04%
same,Viability of LMH Cells (%) ± SD,"[1]; MTT, […], 24 h",97.8 ± 1.8%
same,Viability of LMH Cells (%) ± SD,"[1]; MTT, […], 48 h",61.7 ± 8.9 %
Oc1ccccc1 [Phenol],cell proliferation and cell survival,[6],56%
same,concentration reducing the respiratory rate by 50%,[5],166 ppm
same,cytotoxicity (in words),[1],not cytotoxic
same,cytotoxicity,[1]; chicken,85.5%
CCCC(=O)O [Butyric acid],IC50 (%),[1],0.32% and 0.11%
same,cytotoxicity,"[1]; MTT, 0.5%, 72 h",92.4%
same,dose-dependent inhibition reached,"[1]; MTT, 72 h exposure, concentrations above 0.0125%",92%
same,"viability at 24 h, 0.006 %","[2]; LMH chicken liver hepatocellular carcinoma cells, 0.006%, 24 h",100 ± 0.7%
same,"viability at 72 h, 0.006 %","[2]; LMH chicken liver hepatocellular carcinoma cells, 0.006%, 72 h",98.2 ± 2.1%
same,"viability at 24 h, 0.013 %","[2]; LMH chicken liver hepatocellular carcinoma cells, 0.013%, 24 h",100 ± 0.4%
same,"viability at 72 h, 0.013 %","[2]; LMH chicken liver hepatocellular carcinoma cells, 0.013%, 72 h",95.7 ± 2.1%
same,"viability at 24 h, 0.025 %","[2]; LMH chicken liver hepatocellular carcinoma cells, 0.025%, 24 h",100 ± 0.3%
same,"viability at 72 h, 0.025 %","[2]; LMH chicken liver hepatocellular carcinoma cells, 0.025%, 72 h",86 ± 4.8%
same,"viability at 24 h, 0.063 %","[2]; LMH chicken liver hepatocellular carcinoma cells, 0.063%, 24 h",68.9 ± 1.4%
same,"viability at 72 h, 0.063 %","[2]; LMH chicken liver hepatocellular carcinoma cells, 0.063%, 72 h",66.5 ± 3.2%
same,"viability at 24 h, 0.125 %","[2]; LMH chicken liver hepatocellular carcinoma cells, 0.125%, 24 h",65 ± 0.8%
same,"viability at 72 h, 0.125 %","[2]; LMH chicken liver hepatocellular carcinoma cells, 0.125%, 72 h",46.4 ± 3.2%
same,"viability at 24 h, 0.25 %","[2]; LMH chicken liver hepatocellular carcinoma cells, 0.25%, 24 h",59.4 ± 1.3%
same,"viability at 72 h, 0.25 %","[2]; LMH chicken liver hepatocellular carcinoma cells, 0.25%, 72 h",31.1 ± 2%
same,"viability at 24 h, 0.5 %","[2]; LMH chicken liver hepatocellular carcinoma cells, 0.5%, 24 h",25.1 ± 0.7%
same,"viability at 72 h, 0.5 %","[2]; LMH chicken liver hepatocellular carcinoma cells, 0.5%, 72 h",7.6 ± 0.7%
same,"viability at 24 h, […]","[2]; LMH chicken liver hepatocellular carcinoma cells, […], 24 h",89.3 ± 2%
same,"viability at 72 h, […]","[2]; LMH chicken liver hepatocellular carcinoma cells, […], 72 h",67.2 ± 4.9%
CNC [Dimethylamine],RD50 (concentration which reduces the rate of respiration by 50%),[5],70 mL/m^3
same,IC50 (%),[1],0.06%
same,IC80,[1],0.04% and 0.04 * %
same,Viability of LMH Cells (%) ± SD,[1],20.5 ± 0.1 %
same,cytotoxicity,[1],above 80%
N [Ammonium],Viability of LMH Cells (%) ±S.E.M.,[4]; 0.004%,99.7 ± 5.8%
same,Viability of LMH Cells (%) ±S.E.M.,[4]; 0.008%,99.0 ± 10.1%
same,Viability of LMH Cells (%) ±S.E.M.,[4]; 0.016%,100.2 ± 8.1%
same,Viability of LMH Cells (%) ±S.E.M.,[4]; 0.063%,51.1 ± 7.1 %
same,Viability of LMH Cells (%) ±S.E.M.,[4]; 0.125%,24.6 ± 6.3 %
same,Viability of LMH Cells (%) ±S.E.M.,[4]; 0.25%,5.7 ± 1.1 %
same,Viability of LMH Cells (%) ±S.E.M.,[4]; 0.5%,4.6 ± 0.6 %
same,Viability of LMH Cells (%) ±S.E.M.,[4]; 1.0%,4.7 ± 0.7 %
same,IC50 (%),[4],0.07%
same,Viability of LMH Cells (%) ±S.E.M.,[4]; […],99.1 ± 4.9%
same,IC50,[7],9.4 mM
same,Viability of LMH Cells (%) ± SD,"[1]; MTT, 0.004%, 24 h",97.6 ± 4.3%
same,Viability of LMH Cells (%) ± SD,"[1]; MTT, 0.004%, 48 h",95.6 ± 2.9%
same,Viability of LMH Cells (%) ± SD,"[1]; MTT, 0.004%, 72 h",101.9 ± 5.0%
same,Viability of LMH Cells (%) ± SD,"[1]; MTT, 0.008%, 24 h",98.0 ± 3.0%
same,Viability of LMH Cells (%) ± SD,"[1]; MTT, 0.008%, 48 h",96.8 ± 1.3%
same,Viability of LMH Cells (%) ± SD,"[1]; MTT, 0.008%, 72 h",104.8 ± 2.6%
same,Viability of LMH Cells (%) ± SD,"[1]; MTT, 0.016%, 24 h",93.3 ± 2.8%
same,Viability of LMH Cells (%) ± SD,"[1]; MTT, 0.016%, 48 h",81.4 ± 5.2 %
same,Viability of LMH Cells (%) ± SD,"[1]; MTT, 0.063%, 24 h",61.9 ± 2.0 %
same,Viability of LMH Cells (%) ± SD,"[1]; MTT, 0.063%, 48 h",28.3 ± 1.3 %
same,Viability of LMH Cells (%) ± SD,"[1]; MTT, 0.063%, 72 h",13.8 ± 1.2 %
same,Viability of LMH Cells (%) ± SD,"[1]; MTT, 0.125%, 24 h",18.1 ± 0.8 %
same,Viability of LMH Cells (%) ± SD,"[1]; MTT, 0.125%, 48 h",7.1 ± 0.8 %
same,Viability of LMH Cells (%) ± SD,"[1]; MTT, 0.125%, 72 h",10.0 ± 1.3 %
same,Viability of LMH Cells (%) ± SD,"[1]; MTT, 0.25%, 24 h",5.4 ± 0.1 %
same,Viability of LMH Cells (%) ± SD,"[1]; MTT, 0.25%, 48 h",1.6 ± 0.2 %
same,Viability of LMH Cells (%) ± SD,"[1]; MTT, 0.25%, 72 h",2.9 ± 0.1 %
same,Viability of LMH Cells (%) ± SD,"[1]; MTT, 0.5%, 24 h",5.9 ± 0.2 %
same,Viability of LMH Cells (%) ± SD,"[1]; MTT, 0.5%, 48 h",2.1 ± 0.2 %
same,Viability of LMH Cells (%) ± SD,"[1]; MTT, 0.5%, 72 h",2.8 ± 0.2 %
same,Viability of LMH Cells (%) ± SD,"[1]; MTT, 1.0%, 24 h",13.1 ± 0.1 %
same,Viability of LMH Cells (%) ± SD,"[1]; MTT, 1.0%, 48 h",1.7 ± 0.2 %
same,Viability of LMH Cells (%) ± SD,"[1]; MTT, 1.0%, 72 h",5.8 ± 0.1 %
same,IC50 (%),[1]; [10],0.08%
same,IC50 (%),[1]; [11],0.04%
same,IC50 (%),[1]; [9],0.02%
same,Viability of LMH Cells (%) ± SD,"[1]; MTT, […], 24 h",96.4 ± 1.2%
same,Viability of LMH Cells (%) ± SD,"[1]; MTT, […], 48 h",65.5 ± 4.0 %
same,Viability of LMH Cells (%) ± SD,"[1]; MTT, […], 72 h",31.6 ± 2.1 %
same,effect on proliferation,[8],almost suppressed proliferation
